One data set concerns the target T1, human MMP17 (Homo sapiens, UniProt Q9ULZ9).
T1 construct: purchased R&D Systems
Description: MMP and ADAM activity assay (fluorescence-based): MMP17. Format: biochemical. To be noted: cell-free fluorescence assay. How it is done: (§1) KP‐457 and GM‐6001 were tested for their ability to inhibit MMP‐ and ADAM‐catalyzed cleavage of substrates in a fluorescence‐based assay. Human ADAM17, ADAM10, and MMP17 were from R&D Systems (Minneapolis, MN, http://www.rndsystems.com), and human MMP1, MMP2, MMP3, MMP8, MMP9, MMP13, and MMP14 were from EMD Millipore. MMP1, MMP2, MMP8, MMP9, MMP13, and MMP17 were activated using p‐aminophenylmercuric acetate (Sigma‐Aldrich) before testing. Fluorogenic substrates for measuring activity of ADAM10 and ADAM17 [Nma‐[…](Dnp)r‐NH2, based on the cleavage site of TNF‐α]; MMP1, MMP9, MMP13, and MMP14 [Dnp‐P‐Cha‐GC(Me)HAK(N‐Me‐Abz)‐NH2]; MMP3 [MOCAc‐RPKPVE‐Nva‐WRK(Dnp)‐NH2]; and MMP2, MMP8, and MMP17 [MOCAc‐PLGL‐A2pr(Dnp)‐AR‐NH2] were all provided by Peptide Institute (Osaka, Japan, https://www.peptide.co.jp/en) and used as substrates. In addition, inhibitory activities were measured using LC/MS/MS with a GPIbα‐based substrate peptide ([…]), a C terminal‐based standard peptide ([…]), and an internal standard peptide ([…]). These peptides were synthetized by Scrum (Tokyo, Japan, http://www.scrum‐net.co.jp/english/top_en.htm).

The next data set has as its target T2, human ADAM10 (Homo sapiens, UniProt O14672).
T2 construct: purchased R&D Systems
Description: MMP and ADAM activity assay (fluorescence-based): ADAM10. Format: biochemical. The following applies: cell-free fluorescence assay. How it is done:
as §1

In the next data set the test system is platelet aggregation. Description: Platelet aggregation induced by thrombin or collagen. The format is cell-based.
The next data set has as its target T3, Human ADAM17 (Homo sapiens, UniProt P78536).
T3 construct: purchased R&D Systems
The experiment in a line: Cleavage of GPIbα-based substrate peptide by ADAM17 (LC/MS/MS). Format: biochemical. The following applies: GPIbα-based substrate peptide, LC/MS/MS; read-out: IC50, inhibition of C-terminal cleavage of the GPIbα sequence by ADAM17.
Excerpt: as §1, with “Human” for “KP‐457 and GM‐6001 were tested for their ability to inhibit MMP‐ and ADAM‐catalyzed cleavage of substrates in a fluorescence‐based assay. Human”
(1 picture or pasted object on this page, not shown here)

The test system of a further data set is dogs. The experiment in a line: Good laboratory practice systemic toxicity study in dogs. To be noted: intravenously once a day for 4 weeks, doses up to 3 mg/kg (maximal dose tested), data not shown. Format: in vivo.
Another data set has as its target T4, human MMP1 (Homo sapiens, UniProt P03956).
T4 construct: purchased EMD Millipore
The experiment in a line: MMP and ADAM activity assay (fluorescence-based): MMP1. Format: biochemical. The following applies: cell-free fluorescence assay.
Excerpt: as §1, with “Human” for “KP‐457 and GM‐6001 were tested for their ability to inhibit MMP‐ and ADAM‐catalyzed cleavage of substrates in a fluorescence‐based assay. Human”

Data set [1] can be described thus: Good laboratory practice genotoxicity studies. The following applies: data not shown.
The test system of data set [2] is thrombus formation in NOG mice. Description: In vivo imaging of thrombus formation by transfused iPSC platelets. Also noted: species or system mouse. The following applies: 1 × 10^7 CD41a+ iPSC platelets generated with or without KP-457, irradiated NOG mice, laser injury; p = .0556. How it is done: The procedure was identical to that in the previous report. Small vessels (<25 μm in diameter) within mesenteric capillaries of male NOD/SCID/IL‐2Rg‐null (NOG) mice were evaluated. NOG mice were purchased from the Central Institute for Experimental Animals (Kawasaki, Kanagawa, Japan, http://www.ciea.or.jp/en/index.html).

The next data set deals with T5, human MMP14 (Homo sapiens, UniProt P50281).
T5 construct: purchased EMD Millipore
The experiment in a line: MMP and ADAM activity assay (fluorescence-based): MMP14. Format: biochemical. To be noted: cell-free fluorescence assay. How it is done:
as §1

Another data set deals with T6, human MMP8 (Homo sapiens, UniProt P22894).
T6 construct: purchased EMD Millipore
Description: MMP and ADAM activity assay (fluorescence-based): MMP8. To be noted: cell-free fluorescence assay. The format is biochemical.
Excerpt: as §1, with “Human” for “KP‐457 and GM‐6001 were tested for their ability to inhibit MMP‐ and ADAM‐catalyzed cleavage of substrates in a fluorescence‐based assay. Human”

In another data set the target is T7, human MMP9 (Homo sapiens, UniProt P14780).
T7 construct: purchased EMD Millipore
The experiment in a line: MMP and ADAM activity assay (fluorescence-based): MMP9. The following applies: cell-free fluorescence assay. The format is biochemical.
Excerpt: as §1, with “Human” for “KP‐457 and GM‐6001 were tested for their ability to inhibit MMP‐ and ADAM‐catalyzed cleavage of substrates in a fluorescence‐based assay. Human”

The target of a further data set is T8, human MMP3 (Homo sapiens, UniProt P08254).
T8 construct: purchased EMD Millipore
Description: MMP and ADAM activity assay (fluorescence-based): MMP3. Format: biochemical. To be noted: cell-free fluorescence assay. As for the experimental part: as §1

In another data set the target is T9, human MMP13 (Homo sapiens, UniProt P45452).
T9 construct: purchased EMD Millipore
Description: MMP and ADAM activity assay (fluorescence-based): MMP13. Format: biochemical. The following applies: cell-free fluorescence assay.
Excerpt: as §1, with “Human” for “KP‐457 and GM‐6001 were tested for their ability to inhibit MMP‐ and ADAM‐catalyzed cleavage of substrates in a fluorescence‐based assay. Human”

Data set [3] deals with iPSC platelets, vWF/GPIbα-dependent aggregation. The experiment in a line: Flow cytometry-based platelet aggregation assay (ristocetin). To be noted: 15 µmol/l KP-457 during generation; 2 mg/ml ristocetin; vs. generated in its absence. The format is cell-based, human. As for the experimental part:
Flow cytometry platelet aggregation assays were performed as recently described. Aliquots of iPSC platelets, imMKCL platelets, or fresh washed human platelets were stained with anti‐CD9‐APC or anti‐CD9‐V450, and CD41a^+ platelets were counted using flow cytometry. Next, aliquots of platelets stained using anti‐CD9‐APC were mixed with platelets stained using anti‐CD9‐V450 at a 1:1 ratio (1–4 ×10^5 cells/ml each) and suspended in Tyrode‐HEPES solution containing […] PPACK (a thrombin inhibitor), 10% filtered human plasma, and 3 mmol/l CaCl2. The mixed platelets were stimulated with 2 mg/ml ristocetin or 100 µmol/l TRAP6 and 50 µmol/l ADP for 10 minutes at 37°C while swirling, fixed, and analyzed using flow cytometry. To quantify platelet aggregation, an index of double‐colored events (%) was calculated using the following formula described elsewhere: […]
In general terms: In flow cytometry, cells or beads pass a laser one at a time.

pIC50: −log10 of the molar value.

T1 sequence (Q9ULZ9 126-565 limits assumed): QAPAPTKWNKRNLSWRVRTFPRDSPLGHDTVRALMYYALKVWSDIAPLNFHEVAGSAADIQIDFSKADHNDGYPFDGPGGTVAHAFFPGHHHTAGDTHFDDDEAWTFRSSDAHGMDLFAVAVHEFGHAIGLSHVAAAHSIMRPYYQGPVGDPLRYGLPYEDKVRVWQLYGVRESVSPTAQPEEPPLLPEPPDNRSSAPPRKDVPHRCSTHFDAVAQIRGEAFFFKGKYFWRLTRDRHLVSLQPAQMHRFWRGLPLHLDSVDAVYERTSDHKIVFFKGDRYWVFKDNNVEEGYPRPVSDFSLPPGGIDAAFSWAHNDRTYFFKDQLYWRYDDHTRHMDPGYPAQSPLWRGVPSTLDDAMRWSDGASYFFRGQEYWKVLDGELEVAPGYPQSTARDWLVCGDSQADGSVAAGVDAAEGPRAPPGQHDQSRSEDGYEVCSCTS
T4 sequence (P03956 100-469): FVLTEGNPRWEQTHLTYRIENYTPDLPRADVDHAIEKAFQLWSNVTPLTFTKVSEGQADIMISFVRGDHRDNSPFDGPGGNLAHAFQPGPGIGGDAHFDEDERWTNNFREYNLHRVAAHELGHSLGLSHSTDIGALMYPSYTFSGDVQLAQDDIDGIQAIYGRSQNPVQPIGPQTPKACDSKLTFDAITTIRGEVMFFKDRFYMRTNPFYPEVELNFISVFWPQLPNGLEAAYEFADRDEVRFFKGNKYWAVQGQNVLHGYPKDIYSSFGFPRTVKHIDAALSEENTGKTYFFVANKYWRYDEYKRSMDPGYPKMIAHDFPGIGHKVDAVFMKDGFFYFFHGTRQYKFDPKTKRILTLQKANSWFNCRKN
T7 sequence (P14780 107-707 limits assumed): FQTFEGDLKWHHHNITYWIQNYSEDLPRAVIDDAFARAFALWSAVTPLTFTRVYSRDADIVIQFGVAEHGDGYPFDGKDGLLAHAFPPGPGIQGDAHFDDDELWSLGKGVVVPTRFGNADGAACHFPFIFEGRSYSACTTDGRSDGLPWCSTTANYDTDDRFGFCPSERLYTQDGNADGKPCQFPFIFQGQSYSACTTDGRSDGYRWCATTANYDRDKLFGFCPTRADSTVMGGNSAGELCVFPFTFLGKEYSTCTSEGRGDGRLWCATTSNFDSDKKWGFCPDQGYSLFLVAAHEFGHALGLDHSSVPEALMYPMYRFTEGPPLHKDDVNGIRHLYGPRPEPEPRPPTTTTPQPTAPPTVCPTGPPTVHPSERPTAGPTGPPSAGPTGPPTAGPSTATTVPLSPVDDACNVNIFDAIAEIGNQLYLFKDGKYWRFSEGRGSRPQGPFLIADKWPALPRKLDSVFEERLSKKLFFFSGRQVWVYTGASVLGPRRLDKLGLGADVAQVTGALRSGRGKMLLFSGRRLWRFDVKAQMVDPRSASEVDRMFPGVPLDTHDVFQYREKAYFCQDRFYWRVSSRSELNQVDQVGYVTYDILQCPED
T6 sequence (P22894 101-467): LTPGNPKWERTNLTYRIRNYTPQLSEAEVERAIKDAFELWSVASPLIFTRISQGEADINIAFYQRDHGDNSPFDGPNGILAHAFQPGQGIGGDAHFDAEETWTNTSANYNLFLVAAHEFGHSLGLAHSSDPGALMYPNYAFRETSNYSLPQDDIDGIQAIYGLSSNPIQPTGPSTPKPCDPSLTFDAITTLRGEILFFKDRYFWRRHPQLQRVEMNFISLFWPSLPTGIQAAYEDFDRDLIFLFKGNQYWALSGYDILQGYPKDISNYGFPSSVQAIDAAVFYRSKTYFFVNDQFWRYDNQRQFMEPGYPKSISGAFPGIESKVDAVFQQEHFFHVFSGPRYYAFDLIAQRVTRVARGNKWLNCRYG
T2 sequence (O14672 214-748): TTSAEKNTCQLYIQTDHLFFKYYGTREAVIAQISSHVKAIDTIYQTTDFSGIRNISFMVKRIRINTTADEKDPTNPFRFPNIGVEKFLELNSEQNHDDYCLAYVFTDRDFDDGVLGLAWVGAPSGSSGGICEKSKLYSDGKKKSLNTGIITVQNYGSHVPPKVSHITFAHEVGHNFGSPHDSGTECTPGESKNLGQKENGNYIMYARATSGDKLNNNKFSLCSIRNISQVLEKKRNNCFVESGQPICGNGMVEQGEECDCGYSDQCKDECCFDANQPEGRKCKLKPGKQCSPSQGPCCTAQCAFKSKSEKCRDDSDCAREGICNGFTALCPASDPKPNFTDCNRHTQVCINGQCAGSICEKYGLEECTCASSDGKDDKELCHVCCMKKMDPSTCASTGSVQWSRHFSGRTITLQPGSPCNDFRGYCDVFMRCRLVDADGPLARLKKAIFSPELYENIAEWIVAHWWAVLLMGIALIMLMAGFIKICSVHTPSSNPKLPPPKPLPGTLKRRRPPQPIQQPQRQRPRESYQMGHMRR
T3 sequence (P78536 215-824): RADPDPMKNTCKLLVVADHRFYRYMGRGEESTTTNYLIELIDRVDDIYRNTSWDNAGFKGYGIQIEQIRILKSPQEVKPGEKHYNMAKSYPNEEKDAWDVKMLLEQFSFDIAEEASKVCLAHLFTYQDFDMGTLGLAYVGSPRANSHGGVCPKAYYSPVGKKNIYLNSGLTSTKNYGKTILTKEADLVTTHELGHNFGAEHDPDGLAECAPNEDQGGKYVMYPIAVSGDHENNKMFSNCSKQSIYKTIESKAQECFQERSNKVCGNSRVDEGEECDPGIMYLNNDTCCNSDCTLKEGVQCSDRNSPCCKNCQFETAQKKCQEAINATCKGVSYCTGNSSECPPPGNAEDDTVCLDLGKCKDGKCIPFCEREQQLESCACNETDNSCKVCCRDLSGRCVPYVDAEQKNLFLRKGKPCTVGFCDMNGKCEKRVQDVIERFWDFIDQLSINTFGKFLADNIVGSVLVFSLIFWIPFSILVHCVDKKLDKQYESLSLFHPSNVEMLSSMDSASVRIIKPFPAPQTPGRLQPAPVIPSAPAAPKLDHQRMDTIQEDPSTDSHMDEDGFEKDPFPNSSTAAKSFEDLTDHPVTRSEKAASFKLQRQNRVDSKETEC
T8 sequence (P08254 100-477): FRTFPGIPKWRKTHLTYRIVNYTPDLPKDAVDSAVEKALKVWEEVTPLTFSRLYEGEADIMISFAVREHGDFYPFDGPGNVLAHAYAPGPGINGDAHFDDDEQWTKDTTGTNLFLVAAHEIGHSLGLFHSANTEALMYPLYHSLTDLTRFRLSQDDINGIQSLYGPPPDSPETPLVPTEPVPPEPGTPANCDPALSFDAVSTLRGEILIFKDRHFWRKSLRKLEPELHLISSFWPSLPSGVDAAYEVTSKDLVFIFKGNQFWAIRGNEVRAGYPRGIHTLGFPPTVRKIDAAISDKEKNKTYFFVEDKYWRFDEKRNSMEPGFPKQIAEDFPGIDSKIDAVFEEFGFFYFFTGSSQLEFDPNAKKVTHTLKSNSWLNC

By pIC50 is commonly meant the IC50 on a negative log10 scale, so that one unit is a factor of ten. `CC#CCOc1ccc(S(=O)(=O)CC(c2ccc(CNS(C)(=O)=O)cc2)N(O)C=O)cc1` (centres unmarked) [KP-457, N‐(2‐{[4‐(but‐2‐yn‐1‐yloxy)phenyl]sulfonyl}‐1‐[4‐(methylsulfonamidomethyl)phenyl]ethyl)‐N‐hydroxyformamide]: the pIC50 on human MMP17 is 5.15; against human ADAM10, 6.13; on Human ADAM17 it was 7.97; against human MMP1 it was less than 4.00; against human MMP14, 5.67; against human MMP8, 5.66. Also, the pIC50 on human MMP9 was 5.27; against human MMP3 it was 5.01; at human MMP13, 6.03. Besides, the “effect on platelet aggregation induced by thrombin or collagen” value in the data set with platelet aggregation is “no adverse effects”. In addition, in the data set with dogs, the systemic toxicity result is reported as “neither genotoxicity nor systemic toxicity”. The genotoxicity result in [1] is recorded as “neither genotoxicity nor systemic toxicity”. The “iPSC platelets contributing to thrombus formation in vivo” value in data set [2] is listed as “higher number of iPSC platelets contributed to thrombus formation”. Further, the “ristocetin-induced vWF/GPIbα-dependent aggregation of iPSC platelets generated with inhibitor” value in [3] is on record as “greater aggregation capability”.

(Values after paper PMC5442763, “Selective Inhibition of ADAM17 Efficiently Mediates Glycoprotein Ibα Retention During Ex Vivo Generation of Human Induced Pluripotent Stem Cell‐Derived Platelets” (Stem Cells Translational Medicine, 2016).)
